According to patent publication US20090118135A1, “METHODS AND COMPOUNDS FOR REGULATING APOPTOSIS” (The Burnham Institute, priority 2007, published 2009):
Read-outs that look alike come from different tables or passages of the source.

Tests used:
[1] = target: T1, GST-Bcl-B (Homo sapiens, UniProt Q9HD36); assay: Bcl-B/FITC-TR3-r8 fluorescence polarization competition (displacement) assay, HTS and dose-response
T1 sequence (Q9HD36 1-182 limits assumed): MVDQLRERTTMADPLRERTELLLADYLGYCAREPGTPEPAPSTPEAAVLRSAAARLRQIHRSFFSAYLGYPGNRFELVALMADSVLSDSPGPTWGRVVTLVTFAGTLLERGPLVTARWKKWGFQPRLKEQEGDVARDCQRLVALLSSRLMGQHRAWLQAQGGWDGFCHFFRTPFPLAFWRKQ

[2] = target: T2, GST-Bfl-1 (Homo sapiens, UniProt Q16548); assay: Bfl-1/FITC-Bid BH3 competitive fluorescence polarization assay; type: binding; details: primary HTS hits, MLSCN library (PubChem SIDs), Table 5B
T2 construct: lacking their C-terminal transmembrane domains (about the last 20 amino acids) (“ΔTM”); made in house; host or cells: XL-1 Blue E. coli, pGEX 4T-1
T2 sequence (Q16548 1-155 limits assumed): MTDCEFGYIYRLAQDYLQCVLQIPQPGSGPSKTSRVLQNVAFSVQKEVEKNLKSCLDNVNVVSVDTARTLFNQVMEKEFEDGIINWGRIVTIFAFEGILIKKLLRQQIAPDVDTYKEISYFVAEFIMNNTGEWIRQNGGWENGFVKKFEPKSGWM

[3] = Table 8, NCI Structural library, Binding Assay, FP, Concentration 0.02 uM
[4] = read-out: Result Value (Result Type % Inhibition), BCL-b/TR3
[5] = Table 7, NCI Mechanistic library, Binding Assay, FP, Concentration 0.02 uM
[6] = read-out: Result Value (Result Type % Inhibition), BCL-b/TR3, Table 8, NCI Structural library, Binding Assay, FP, Concentration 0.02 uM
[7] = LOPAC1280 library primary screen
[8] = LOPAC1280 library, fluorescence intensity normalized to plate negative controls
[9] = read-out: Result Value (% Inhibition)
[10] = read-out: Result Value (Result Type % Inhibition), BCL-b/TR3, Table 7, NCI Mechanistic library, Binding Assay, FP, Concentration 0.02 uM

Row | F Ratio [1, 3] | Is Hit [1, 3] | inhibition at 0.02 µM [1, 4] | % Activity [2] | FRatio [2] | SMILES | other results
1 |  |  | 115% |  |  | O=C1c2cccc(NCCCNCCO)c2C(=O)c2cccc(NCCCNCCO)c21 [Compound 363998] | F Ratio [1, 5]: 0.2213; Is Hit [1, 5]: Yes
2 | 0.1777 | Yes | 81.8% |  |  | O=C1C=C(NCCc2cc(Br)c(O)c(Br)c2)C(=O)c2ncccc21 [Compound 668394] | 
3 | 0.09369 | Yes | 77.4% |  |  | Oc1ccc(Cc2nccc3cc(O)c(O)cc23)cc1O [Compound 99799] | 
4 | 0.05712 | Yes | 139% |  |  | O=[N+]([O-])c1ccc2c(/N=N/c3ccc4ccccc4c3O)c(O)cc(S(=O)(=O)O)c2c1 [Compound 7223] | 
5 |  |  |  |  |  | O=C(Nc1cc(C(=O)Nc2ccc(S(=O)(=O)O)cc2S(=O)(=O)O)cc(C(=O)Nc2ccc(S(=O)(=O)O)cc2S(=O)(=O)O)c1)Nc1cc(C(=O)Nc2ccc(S(=O)(=O)O)cc2S(=O)(=O)O)cc(C(=O)Nc2ccc(S(=O)(=O)O)cc2S(=O)(=O)O)c1 [N 4784] | Is Hit [1, 7]: Yes; F Ratio [1, 8]: 1.0398; inhibition at 0.02 µM [1, 9]: 64.7%
6 | 0.9609 | Yes | 54% |  |  | COC1/C2=C(\O)C3(C)Oc4c5c(O)c6c(O)c(c(CN(C)C)c(O)c6c4C3=O)NC(=O)/C(C)=C\C=C/CC(O)C(C)C(O5)C(C)C(OC2=O)C1C (stereo not drawn) [Compound 145612] | 
7 | 0.05945 | Yes | 119% |  |  | O=S(=O)(O)c1ccc2c(/N=N/c3c(O)ccc4ccccc34)cccc2c1 [Compound 45576] | 
8 |  |  |  |  |  | COc1ccc2c(c1)-c1nn(CCCN(C)C)c3ccc([N+](=O)[O-])c(c13)N2 [Compound 627168] | F Ratio [1, 5]: 0.1807; Is Hit [1, 5]: Yes; inhibition at 0.02 µM [1, 10]: 64.4%
9 |  |  | 94.9% |  |  | CCN(CC)Cc1cc(/N=N/c2c(O)ccc3c(/N=N/c4ccc(O)c(CN(CC)CC)c4)c(O)ccc23)ccc1O [Compound 359463] | F Ratio [1, 5]: 0.08773; Is Hit [1, 5]: Yes
10 |  |  |  |  |  | O=[N+]([O-])c1cc(O)c(O)c([N+](=O)[O-])c1 [Compound D-131] | Result Value (% Inhibition) ([1]; LOPAC1280 (Sigma-Aldrich) library, BCL-b/TR3 Binding Assay, FP, Concentration 0.02 uM, % competition): 68.095%; Is Hit [1, 7]: Yes; F Ratio [1, 8]: 0.1464
11 | 0.1219 | Yes | 66.1% |  |  | O=S(=O)(O)c1cc(O)c2c(O)c(/N=N/c3cccc4ccccc34)c(S(=O)(=O)O)cc2c1 [Compound 45208] | 
12 |  |  | 104% |  |  | CCN1C=C/C(=C\C=C\c2cc[n+](CC)c3ccccc23)C2C=CC=CC21 (stereo not drawn) [Compound 34391] | F Ratio [1, 5]: 0.2486; Is Hit [1, 5]: Yes
13 |  |  |  |  |  | CN1CC=C(Nc2ccc(C(=O)Nc3ccc(Nc4ccncc4)cc3)c([N+](=O)[O-])c2)c2cc([N+](=O)[O-])ccc21 [Compound 218439] | F Ratio [1, 5]: 0.07485; Is Hit [1, 5]: Yes; inhibition at 0.02 µM [1, 10]: 106%
14 |  |  |  |  |  | Cc1cc2c(C(C)C)c(O)c(O)c(C=O)c2c(O)c1-c1c(C)cc2c(C(C)C)c(O)c(O)c(C=O)c2c1O [Compound 56817] | F Ratio [1, 5]: 0.1472; Is Hit [1, 5]: Yes; inhibition at 0.02 µM [1, 10]: 57.3%
15 | 0.2215 | Yes | 124% |  |  | O=C(O)c1cccc(/N=N/c2c(S(=O)(=O)O)ccc3c2C(=O)c2ccccc2C3=O)c1O [Compound 125908] | 
16 | 0.1416 | Yes | 110% |  |  | CN(C)CCCNc1cc(O)c2c(c1O)C(=O)c1ccccc1C2=O [Compound 339585] | 
17 | 0.5317 | Yes | 158% |  |  | O=C(O)CCc1c2ccc(=O)c(O)c-2oc2c(O)c(O)ccc12 [Compound 119915] | 
18 |  |  |  |  |  | O=c1c(O)c(-c2cc(O)c(O)c(O)c2)oc2cc(O)cc(O)c12 [M 6750] | Is Hit [1, 7]: Yes; F Ratio [1, 8]: 0.1247; inhibition at 0.02 µM [1, 9]: 61%
19 | 0.07696 | Yes | 133% |  |  | COc1ccc2nc3cc(Cl)ccc3c(Nc3ccc(O)c(CN4CCN(C)CC4)c3)c2c1.Cl [Compound 130813] | 
20 | 0.1208 | Yes | 58.6% |  |  | CS(=O)(=O)Nc1ccc(Nc2c3ccccc3nc3ccccc23)cc1 [Compound 156305] | 

Row | F Ratio [1, 3] | Is Hit [1, 3] | inhibition at 0.02 µM [1, 4] | % Activity [2] | FRatio [2] | SMILES | other results
21 | 1.1279 | Yes | 150% |  |  | CCOc1ccc2nc3cc(/N=N/c4ccc(N)nc4N)ccc3c(N)c2c1.Cl [Compound 354961] | 
22 | 0.4361 | Yes | 50.7% |  |  | O=S(=O)(O)c1ccc(NN(c2c(O)ccc3ccccc23)S(=O)(=O)O)cc1 [Compound 9600] | 
23 | 0.06989 | Yes | 120% |  |  | N=C(N)c1ccc(/N=N/c2c(O)ccc3c2[nH]c2ccccc23)cc1 [Compound 357777] | 
24 | 0.1582 | Yes | 119% |  |  | O=C(O)C1CCCCC1c1c2ccc(=O)c(O)c-2oc2c(O)c(O)ccc12 (stereo not drawn) [Compound 119910] | 
25 |  |  |  |  |  | [NH3+][Ru]([NH3+])([NH3+])([NH3+])([NH3+])[O][Ru]([NH3+])([NH3+])([NH3+])([NH3+])[O][Ru]([NH3+])([NH3+])([NH3+])([NH3+])[NH3+] [R 2751] | Is Hit [1, 7]: Yes; F Ratio [1, 8]: 1.1267
26 | 0.28 | Yes | 54.3% |  |  | Cc1ccc(/N=N/c2c(O)ccc3cc(S(=O)(=O)O)ccc23)cc1 [Compound 7814] | 
27 |  |  |  | 57.1% | 0.97 | CN(CC(=O)Nc1c(Cl)cccc1Cl)C(=O)CCCN1C(=O)c2ccccc2C1=O [Compound 17388283] | 
28 |  |  |  | 75.9% | 0.93 | O=C(COC(=O)C1CCN(S(=O)(=O)c2cc([N+](=O)[O-])ccc2Cl)CC1)Nc1ncc(Cl)cc1Cl [Compound 14744641] | 
29 |  |  |  | 69.2% | 0.51 | CCCCCc1nnc(NC(=O)Cc2cccs2)s1 [Compound 4259217] | 
30 |  |  |  | 76.1% | 0.72 | Cc1cccc(OCC(=O)Nc2ccc(N3CCCC3)cc2)c1C [Compound 7975075] | 
31 |  |  |  | 51.1% | 1.04 | C[C@@H](C(=O)Nc1nc(-c2ccccn2)cs1)N1C(=O)C2CCCCC2C1=O (stereo partly drawn) [Compound 16952892] | 
32 |  |  |  | 63.1% | 0.63 | CC(=N)/C(C#N)=C(/O)CSc1nnc(Nc2c(C)cccc2C)s1 [Compound 3715042] | 
33 |  |  |  | 90.4% | 0.73 | CN(C)S(=O)(=O)N(CC(=O)N(Cc1ccccc1)Cc1ccccc1)c1ccccc1 [Compound 14736293] | 
34 |  |  |  | 52.9% | 0.98 | Cn1c(=O)n(C)c2cc(S(=O)(=O)Nc3ccccc3O)ccc21 [Compound 14723355] | 
35 |  |  |  | 63.4% | 0.8 | Cc1ccc(S(=O)(=O)NCC(=O)OCC(=O)Nc2ncc(Cl)cc2Cl)cc1 [Compound 3711819] | 
36 |  |  |  | 52.2% | 0.73 | O=C1CCCC2=C1C(c1ccco1)Nc1ccc3ccccc3c12 (stereo not drawn) [Compound 7975176] | 
37 |  |  |  | 79.7% | 0.96 | O=C(COC(=O)c1cccs1)NCc1ccco1 [Compound 3712480] | 
38 |  |  |  | 57.1% | 1 | CCC1=[N+](C)CCn2c(C)ccc21 [Compound 14734567] | 
39 |  |  |  | 51.2% | 1.16 | COC(=O)CNc1c(-c2ccccn2)nc2ccc(Br)cn12 [Compound 4251133] | 

Row | SMILES | F Ratio [1, 3] | Is Hit [1, 3] | inhibition at 0.02 µM [1, 4] | % Activity [2] | FRatio [2] | other results
40 | O=C1c2cc([N+](=O)[O-])ccc2-c2ccc3c4ccc5c6c(ccc(c7ccc1c2c73)c64)C(=O)c1cc([N+](=O)[O-])ccc1-5 [Compound 51535] | 0.4823 | Yes | 146% |  |  | 
41 | O=[N+]([O-])c1cc(Cc2cc([N+](=O)[O-])c3cccnc3c2O)c(O)c2ncccc12 [Compound 130798] | 0.1969 | Yes |  |  |  | inhibition at 0.02 µM [1, 6]: 115%
42 | C[C@]12CC[C@H]3[C@@H](CCC4=CC(=O)CC[C@@]43C)[C@@H]1CC[C@@H]2C(=O)COS(=O)(=O)c1ccc(Br)cc1 [Compound 88915] | 0.2647 | Yes | 61.4% |  |  | 
43 | CC1C2C=CC1C(c1c3ccc(=O)c(O)c-3oc3c(O)c(O)ccc13)C2C(=O)O (stereo not drawn) [Compound 119913] | 0.0972 | Yes | 131% |  |  | 
44 | CN(C)CS/C(N)=N\C(O)C(Cl)(Cl)Cl (stereo not drawn) [Compound 14555] | 0.6767 | Yes |  |  |  | inhibition at 0.02 µM [1, 6]: 59.9%
45 | CC(=O)O.Cc1c2cc[n+](CCN3CCCCC3)cc2c(C)c2c1[nH]c1ccc(O)cc12 [Compound 311153] | 0.3973 | Yes |  |  |  | F Ratio [1, 5]: 0.275; Is Hit [1, 5]: Yes; inhibition at 0.02 µM [1, 10]: 120%; inhibition at 0.02 µM [1, 6]: 128%
46 | ClC1=CCC2CN(CCN3CCCCC3)CC2C1 (stereo not drawn) [Compound 860752] |  |  |  | 67.7% | 0.79 | 
